In ChEMBL document CHEMBL1909046, “DrugMatrix in vitro pharmacology data”:

What was measured:
[1] = biological target: T1, Substance-K receptor (Homo sapiens, UniProt P21452); type: cell membranes, CHO, Membrane; also: in other assays of this panel Not Active means under 50% inhibition at 10 µM
T1 sequence (P21452 whole entry): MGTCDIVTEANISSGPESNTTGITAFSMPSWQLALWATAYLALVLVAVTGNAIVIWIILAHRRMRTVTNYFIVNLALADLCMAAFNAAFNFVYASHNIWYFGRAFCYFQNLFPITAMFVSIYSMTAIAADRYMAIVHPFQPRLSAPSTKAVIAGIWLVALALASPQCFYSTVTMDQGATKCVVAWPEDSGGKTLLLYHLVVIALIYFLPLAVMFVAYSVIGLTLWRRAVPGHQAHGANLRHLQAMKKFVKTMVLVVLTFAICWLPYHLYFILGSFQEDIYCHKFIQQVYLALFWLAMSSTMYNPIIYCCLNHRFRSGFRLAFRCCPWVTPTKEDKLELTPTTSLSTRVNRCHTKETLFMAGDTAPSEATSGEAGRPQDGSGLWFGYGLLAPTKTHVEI

[2] = biological target: T2, Muscarinic acetylcholine receptor M2 (Homo sapiens, UniProt P08172); type: cell membranes, CHO-K1, Membrane; also: in other assays of this panel Not Active means under 50% inhibition at 10 µM
T2 sequence (P08172 whole entry): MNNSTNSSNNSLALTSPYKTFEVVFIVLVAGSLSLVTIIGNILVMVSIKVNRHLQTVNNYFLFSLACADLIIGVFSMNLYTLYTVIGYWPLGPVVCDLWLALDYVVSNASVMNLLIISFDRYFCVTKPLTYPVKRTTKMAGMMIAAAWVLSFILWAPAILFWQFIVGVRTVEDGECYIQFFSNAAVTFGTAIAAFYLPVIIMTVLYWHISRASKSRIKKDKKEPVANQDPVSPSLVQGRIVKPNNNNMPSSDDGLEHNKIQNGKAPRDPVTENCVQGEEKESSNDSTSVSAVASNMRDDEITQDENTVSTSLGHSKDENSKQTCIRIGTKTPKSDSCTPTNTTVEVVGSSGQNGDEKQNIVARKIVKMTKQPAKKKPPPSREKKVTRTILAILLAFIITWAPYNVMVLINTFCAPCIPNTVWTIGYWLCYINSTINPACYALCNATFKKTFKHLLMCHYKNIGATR

[3] = DRUGMATRIX: Calcium Channel Type L, Dihydropyridine radioligand binding (ligand: [3H] Nitrendipine); type: cell membranes, Rattus norvegicus, Wistar, Cerebral cortex, Membrane; settings: Not Active = under 50% inhibition at 10 µM
[4] = biological target: T3, Receptor-type tyrosine-protein phosphatase C (Homo sapiens, UniProt P08575); parameters: species or system Escherichia coli;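 also: inhibition of CD45 enzyme activity measured using DiFMUP as substrate; in other assays of this panel Not Active means under 50% inhibition at 10 µM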
T3 sequence (P08575 whole entry): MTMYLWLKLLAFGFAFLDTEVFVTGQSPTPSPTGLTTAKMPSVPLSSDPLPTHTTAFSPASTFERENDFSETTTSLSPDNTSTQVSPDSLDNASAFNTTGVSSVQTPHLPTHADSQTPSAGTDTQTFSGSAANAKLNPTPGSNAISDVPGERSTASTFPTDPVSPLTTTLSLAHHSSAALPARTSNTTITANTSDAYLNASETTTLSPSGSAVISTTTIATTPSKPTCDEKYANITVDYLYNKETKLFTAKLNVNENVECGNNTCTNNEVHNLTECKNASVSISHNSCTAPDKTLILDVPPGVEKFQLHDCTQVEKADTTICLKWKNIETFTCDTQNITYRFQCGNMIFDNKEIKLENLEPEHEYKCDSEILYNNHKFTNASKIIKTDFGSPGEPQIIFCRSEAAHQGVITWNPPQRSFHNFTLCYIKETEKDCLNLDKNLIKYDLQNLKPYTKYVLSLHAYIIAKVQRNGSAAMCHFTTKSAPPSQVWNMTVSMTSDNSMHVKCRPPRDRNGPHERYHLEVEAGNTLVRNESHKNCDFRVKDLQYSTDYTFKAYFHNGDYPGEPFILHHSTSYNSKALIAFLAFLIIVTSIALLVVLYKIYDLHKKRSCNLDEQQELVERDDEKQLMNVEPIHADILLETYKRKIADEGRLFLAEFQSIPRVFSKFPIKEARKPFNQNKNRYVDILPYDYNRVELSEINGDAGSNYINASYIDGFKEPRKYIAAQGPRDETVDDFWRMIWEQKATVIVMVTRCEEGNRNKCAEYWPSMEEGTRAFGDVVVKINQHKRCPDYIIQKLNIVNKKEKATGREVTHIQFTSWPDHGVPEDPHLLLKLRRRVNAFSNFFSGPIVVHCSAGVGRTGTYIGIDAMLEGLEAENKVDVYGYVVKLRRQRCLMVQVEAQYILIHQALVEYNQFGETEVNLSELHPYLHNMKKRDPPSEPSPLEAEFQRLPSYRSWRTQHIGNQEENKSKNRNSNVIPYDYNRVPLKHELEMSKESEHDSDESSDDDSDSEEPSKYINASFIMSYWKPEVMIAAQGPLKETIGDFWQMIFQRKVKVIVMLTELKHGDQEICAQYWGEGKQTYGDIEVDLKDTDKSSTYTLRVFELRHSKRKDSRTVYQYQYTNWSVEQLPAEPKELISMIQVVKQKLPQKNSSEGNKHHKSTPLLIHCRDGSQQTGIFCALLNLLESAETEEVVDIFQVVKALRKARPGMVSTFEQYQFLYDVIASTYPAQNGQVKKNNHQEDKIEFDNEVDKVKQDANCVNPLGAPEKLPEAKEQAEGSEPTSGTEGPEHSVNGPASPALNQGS

[5] = DRUGMATRIX: ATPase, Na+/K+ enzyme inhibition (substrate: ATP); type: tissue-based, Sus scrofa, Heart; settings: Not Active = under 50% inhibition at 10 µM

| SMILES | IC50 ([1]; cho) | IC50 ([2]; cho-k1) | IC50 [3] | Ki [3] | IC50 [4] | IC50 [5] | Ki [5] | IC50 ([2]; read-out: IC50) | Ki ([2]; read-out: Ki) | IC50 ([1]; read-out: IC50) | Ki ([1]; read-out: Ki) | IC50 ([5]; read-out: IC50) |
| --- | --- | --- | --- | --- | --- | --- | --- | --- | --- | --- | --- | --- |
| COc1ccc(C(=O)N2CCCC2=O)cc1 | Not Active | Not Active | Not Active | Not Active | Not Active | Not Active | Not Active |  |  |  |  |  |
| NCCCC(O)(P(=O)(O)O)P(=O)(O)O [ALENDRONIC ACID] | Not Active | Not Active | Not Active | Not Active | Not Active | Not Active | Not Active |  |  |  |  |  |
| Cn1c(=O)c2[nH]cnc2n(C)c1=O.Cn1c(=O)c2[nH]cnc2n(C)c1=O.NCCN [AMINOPHYLLINE] | Not Active | Not Active | Not Active | Not Active | Not Active | Not Active | Not Active |  |  |  |  |  |
| CCC1(CCC(C)C)C(=O)NC(=O)NC1=O [AMOBARBITAL] | Not Active | Not Active | Not Active | Not Active | Not Active | Not Active | Not Active |  |  |  |  |  |
| CC1(C)S[C@@H]2[C@H](NC(=O)[C@H](N)c3ccccc3)C(=O)N2[C@H]1C(=O)O [AMPICILLIN] | Not Active | Not Active | Not Active | Not Active | Not Active | Not Active | Not Active |  |  |  |  |  |
| O=C1O[C@H]([C@@H](O)CO)C(O)=C1O [ASCORBIC ACID] | Not Active | Not Active | Not Active | Not Active | Not Active | Not Active | Not Active |  |  |  |  |  |
| CN1[C@@H]2CC[C@H]1C[C@@H](OC(=O)C(CO)c1ccccc1)C2 (stereo partly drawn) [ATROPINE] | Not Active |  | Not Active | Not Active | Not Active | Not Active | Not Active |  |  |  |  |  |
| Brc1c(NC2=NCCN2)ccc2nccnc12 [BRIMONIDINE] | Not Active | Not Active | Not Active | Not Active | Not Active | Not Active | Not Active |  |  |  |  |  |
| CN(C)[C@@H]1C(O)=C(C(N)=O)C(=O)[C@@]2(O)C(O)=C3C(=O)c4c(O)ccc(Cl)c4[C@@](C)(O)[C@H]3C[C@@H]12 [CHLORTETRACYCLINE] | Not Active | Not Active | Not Active | Not Active | Not Active | Not Active | Not Active |  |  |  |  |  |
| C[C@@H]1C[C@H]2[C@@H]3CCC4=CC(=O)C=C[C@]4(C)[C@@]3(F)[C@@H](O)C[C@]2(C)[C@H]1C(=O)CO [DESOXIMETASONE] | Not Active | Not Active | Not Active | Not Active | Not Active | Not Active | Not Active |  |  |  |  |  |
| C[C@@H]1C[C@H]2[C@@H]3CCC4=CC(=O)C=C[C@]4(C)[C@@]3(F)[C@@H](O)C[C@]2(C)[C@@]1(O)C(=O)CO [DEXAMETHASONE] | Not Active | Not Active | Not Active | Not Active | Not Active | Not Active | Not Active |  |  |  |  |  |
| CN(C)CC[C@@H](c1ccc(Cl)cc1)c1ccccn1 [DEXCHLORPHENIRAMINE] | Not Active |  | Not Active | Not Active | Not Active | Not Active | Not Active | 6.99 µM | 2.49 µM |  |  |  |
| C[C@H]1O[C@@H](n2cc(F)c(=O)[nH]c2=O)[C@H](O)[C@@H]1O [DOXIFLURIDINE] | Not Active | Not Active | Not Active | Not Active | Not Active | Not Active | Not Active |  |  |  |  |  |
| CC[C@H]1CN2CCc3cc(OC)c(OC)cc3[C@@H]2C[C@@H]1C[C@H]1NCCc2cc(OC)c(OC)cc21 [EMETINE] | Not Active | Not Active | Not Active | Not Active | Not Active | Not Active | Not Active |  |  |  |  |  |
| C[C@@H](CO)NC(=O)[C@@H]1C=C2c3cccc4[nH]cc(c34)C[C@H]2N(C)C1 [ERGONOVINE] | Not Active | Not Active | Not Active | Not Active | Not Active | Not Active | Not Active |  |  |  |  |  |
| COC(=O)CCc1ccc(OCC(O)CNC(C)C)cc1 (stereo not drawn) [ESMOLOL] | Not Active | Not Active | Not Active | Not Active | Not Active | Not Active | Not Active |  |  |  |  |  |
| COc1cc([C@@H]2c3cc4c(cc3[C@@H](O[C@@H]3O[C@@H]5CO[C@@H](C)O[C@H]5[C@H](O)[C@H]3O)[C@H]3COC(=O)[C@H]23)OCO4)cc(OC)c1O [ETOPOSIDE] | Not Active | Not Active | Not Active | Not Active | Not Active | Not Active | Not Active |  |  |  |  |  |
| CC(C(=O)O)c1cccc(Oc2ccccc2)c1 (stereo not drawn) [FENOPROFEN] | Not Active | Not Active | Not Active | Not Active | Not Active | Not Active | Not Active |  |  |  |  |  |
| CC(C)=CCC/C(C)=C/CO [GERANIOL] | Not Active | Not Active | Not Active | Not Active | Not Active | Not Active | Not Active |  |  |  |  |  |
| N=C(N)NC(=O)Cc1c(Cl)cccc1Cl [GUANFACINE] | Not Active | Not Active | Not Active | Not Active | Not Active | Not Active | Not Active |  |  |  |  |  |
| Oc1c(Cl)cc(Cl)c(Cl)c1Cc1c(O)c(Cl)cc(Cl)c1Cl [HEXACHLOROPHENE] |  | Not Active | Not Active | Not Active | Not Active |  |  |  |  | 4.14 µM | 1.38 µM | 6.13 µM |
| NNc1nncc2ccccc12 [HYDRALAZINE] | Not Active | Not Active | Not Active | Not Active | Not Active | Not Active | Not Active |  |  |  |  |  |
| CC(=O)[C@@]1(O)CC[C@H]2[C@@H]3CCC4=CC(=O)CC[C@]4(C)[C@H]3CC[C@@]21C [HYDROXYPROGESTERONE] | Not Active | Not Active | Not Active | Not Active | Not Active | Not Active | Not Active |  |  |  |  |  |
| Cc1c(OCC(F)(F)F)ccnc1C[S+]([O-])c1nc2ccccc2[nH]1 (stereo not drawn) [LANSOPRAZOLE] | Not Active | Not Active | Not Active | Not Active | Not Active | Not Active | Not Active |  |  |  |  |  |
